The text below walks through data of ChEMBL document CHEMBL5233255, “Natural and nature-inspired stilbenoids as antiviral agents” (Eur J Med Chem, 2020).

Converted amounts (≈) assume the structure as drawn.

In data set [1] the test system is Influenza A virus. The data set is described as follows: Antiviral activity against influenza A virus A/PR/8/34 (H1N1) infected in MDCK cells preincubated 2 hrs followed by viral infection and measured after 24 hrs by MTT assay. The data set is classed as functional, organism-based. A general note: Formazan colour is commonly taken as a measure of viable cells.

Data set [2] can be described thus: Cytotoxicity against MDCK cells assessed as reduction in cell viability incubated for 72 hrs by MTT assay. The data set is classed as toxicity, cell-based, Canis lupus familiaris. The conditions noted are these: dog.
A short description of data set [3]: Selectivity index, ratio of CC50 for cytotoxicity against African green monkey Vero cells to IC50 for antiviral activity against HSV-1 clinical isolate infected in African green monkey Vero cells. The data set is classed as toxicity, cell-based. The conditions noted are these: read-out: Ratio CC50/IC50.
Data set [4] concerns Human alphaherpesvirus 2. The data set is described as follows: Antiviral activity against HSV-2 333 infected in African green monkey Vero cells incubated for 3 days by plaque reduction assay. The class given is functional, organism-based. Particulars: Human alphaherpesvirus 2, 333, Vero, 72 h. Background: Plaque reduction counts the foci of infection that form in a cell layer.

For data set [5], the system named is Human alphaherpesvirus 1. The data set is described as follows: Antiviral activity against HSV-1 clinical isolate infected in African green monkey Vero cells incubated for 3 days by plaque reduction assay. The conditions noted are these: Human alphaherpesvirus 1, Vero, 72 h. The class given is functional, organism-based.
Data set [6] is described as follows: Selectivity index, ratio of CC50 for cytotoxicity against African green monkey Vero cells to IC50 for antiviral activity against HSV-2 333 infected in African green monkey Vero cells. The class given is toxicity, cell-based. Particulars: read-out: Ratio CC50/IC50.
Data set [7] relates to Human alphaherpesvirus 1. The data set is described as follows: Antiviral activity against HSV-1 15577 infected in African green monkey Vero cells incubated for 3 days by plaque reduction assay. The class given is functional, organism-based. Particulars: Human alphaherpesvirus 1, 15577, Vero, 72 h.
A short description of data set [8]: Selectivity index, ratio of CC50 for cytotoxicity against African green monkey Vero cells to IC50 for antiviral activity against HSV-1 15577 infected in African green monkey Vero cells. The class given is toxicity, cell-based. The conditions noted are these: read-out: Ratio CC50/IC50.
Data set [9] in a line: Inhibition of influenza B virus B/Jiangsu/10/2003 neuraminidase.
Data set [10] is described as follows: Selectivity index, ratio of CC50 for cytotoxicity against MDCK cells to IC50 for influenza A virus A/Guangdong/243/72 ([…]) infected in MDCK cells. The conditions noted are these: dog, read-out: Ratio CC50/IC50. The data set is classed as toxicity, cell-based.
The test system of data set [11] is Influenza A virus. Nature of the data set: Antiviral activity against influenza A virus A/Guangdong/243/72 ([…]) infected in MDCK cells assessed as inhibition of virus-induced cytopathic effect. The data set is classed as functional, organism-based. A general note: Protection from cytopathic effect is a common read-out in antiviral testing.
The test system of data set [12] is Human immunodeficiency virus 1. Nature of the data set: Antiviral activity against HIV-1 GB8 infected in human JM1 cells. The class given is functional, organism-based. The conditions noted are these: Human immunodeficiency virus 1, GB8, JM1.
The subject of data set [13] is Human alphaherpesvirus 2. The data set is described as follows: Antiviral activity against HSV-2 VR-734 infected in African green monkey Vero cells assessed as inhibition of viral replication measured after 72 hrs by MTT assay. The class given is functional, organism-based. The conditions noted are these: Human alphaherpesvirus 2, VR-734, Vero.
In data set [14] the test system is Human alphaherpesvirus 2. The data set is described as follows: Antiviral activity against HSV-2 VR-734 infected in human NCI-H1299 cells. Particulars: Human alphaherpesvirus 2, VR-734, NCI-H1299. The data set is classed as functional, organism-based.
Data set [15] relates to Human alphaherpesvirus 2. Nature of the data set: Antiviral activity against HSV-2 VR-734 infected in human HeLa cells. The data set is classed as functional, organism-based. The conditions noted are these: Human alphaherpesvirus 2, VR-734, HeLa.
A further data set has as its system Enterovirus A71. The data set is described as follows: Antiviral activity against human EV71 infected in African green monkey Vero cells assessed as reduction in cytopathic effect by SRB assay. The conditions noted are these: Enterovirus A. The class given is functional, organism-based.
For the next data set, the system named is Coxsackievirus B3. The data set is described as follows: Antiviral activity against CVB3 infected in African green monkey Vero cells assessed as reduction in cytopathic effect by SRB assay. Particulars: Enterovirus B. The class given is functional, organism-based.
Data set [16] concerns Hepatitis C virus. The data set is described as follows: Antiviral activity against Hepatitis C virus genotype 1 infected in Bart79I RNA-transfected human Huh7.5 cells assessed as reduction in viral replication incubated for 24 to 72 hrs by RT-PCR assay. The class given is functional, organism-based, Hepacivirus hominis. The conditions noted are these: genotype 1, Huh7.5.

Data set [17] concerns Influenza A virus. Nature of the data set: Antiviral activity against influenza A virus A/PR/8/34 (H1N1) infected in human A549 cells assessed as inhibition of RANTES production incubated for 48 hrs by ELISA. The class given is functional, organism-based. Particulars: A549, 48 h.
A short description of data set [18]: Cytotoxicity against HCV RNA-transfected human Huh7.5 cells assessed as reduction in cell viability. The data set is classed as toxicity, cell-based, Huh-7.5. Particulars: HCV RNA-transfected Huh7.5 cells.
The subject of data set [19] is Hepatitis C virus. The data set is described as follows: Antiviral activity against Hepatitis C virus infected in human Huh7.5 cells assessed as reduction in viral replication. The data set is classed as functional, organism-based, Hepacivirus hominis.
Data set [20] has as its system Hepatitis C virus. The data set is described as follows: Antiviral activity against Hepatitis C virus genotype 2 infected in human Huh7.5 cells assessed as reduction in viral replication by RT-PCR assay. The conditions noted are these: genotype 2, Huh7.5. The data set is classed as functional, organism-based, Hepacivirus hominis.
Data set [21] is described as follows: Cytotoxicity against human Huh7.5 cells infected with Hepatitis C virus assessed as reduction in cell viability. The data set is classed as toxicity, cell-based, Huh-7.5.
Data set [22] concerns Hepatitis C virus. Nature of the data set: Antiviral activity against Hepatitis C virus genotype 2 infected in renilla luciferase-J6/JFH1 RNA-transfected human Huh7.5 cells assessed as reduction in viral replication incubated for 72 hrs by qRT-PCR analysis. The conditions noted are these: genotype 2, Huh7.5, 72 h. The data set is classed as functional, organism-based, Hepacivirus hominis.

Data set [23] is described as follows: Cytotoxicity against human A549 cells assessed as reduction in cell viability by Alamar blue assay. The data set is classed as toxicity, cell-based.
Data set [24] is described as follows: Selectivity index, ratio of TC50 for cytotoxicity against HEK293T cells to EC50 for antiviral activity against HIV-1 infected in HEK293T cells. The class given is toxicity, cell-based. Particulars: human.
Data set [25] relates to Human immunodeficiency virus 1. The data set is described as follows: Antiviral activity against HIV-1 infected in HEK293T cells. The class given is functional, organism-based. Particulars: Human immunodeficiency virus 1, HEK-293T.
The nature of data set [26]: Cytotoxicity against HEK293T cells. The conditions noted are these: human, read-out: TC50 (the source's name). The class given is toxicity, cell-based, HEK-293T.
Data set [27] in a line: Cytotoxicity against human C8166 cells assessed as inhibition of cell growth by MTT assay. The data set is classed as toxicity, cell-based.
Data set [28] in a line: Therapeutic index, ratio of CC50 for cytotoxicity against human C8166 cells to EC50 for antiviral activity against HIV-1 infected in C8166 cells. The data set is classed as toxicity, cell-based. The conditions noted are these: read-out: Ratio CC50/EC50.
The subject of the next data set is Vero C1008. The data set is described as follows: Cytotoxicity against African green monkey Vero E6 cells infected with Middle East respiratory syndrome coronavirus assessed as reduction in cell viability at 250 uM by LDH assay relative to control. The class given is toxicity, cell-based. Particulars: chlorocebus sabaeus, vero c1008, 250 µM.
A further data set concerns rhinovirus A1B. Nature of the data set: Antiviral activity against HRV1B infected in human HeLa cells assessed as reduction in cytopathic effect by SRB assay. Particulars: Rhinovirus A. The class given is functional, organism-based.
The test system of data set [29] is Human immunodeficiency virus 1. The data set is described as follows: Antiviral activity against HIV-1 infected in human C8166 cells assessed as inhibition of viral replication. The data set is classed as functional, organism-based. The conditions noted are these: Human immunodeficiency virus 1, C8166.

What is called EC50 is the concentration at which the effect is half-maximal. Compound `O=C(O)c1ccccc1/N=N/c1ccc(O)cc1O` registered an EC50 in the data set with Influenza A virus [1] of 7.28 µg/mL (≈ 28.2 µM). The CC50 at 72 h in data set [2] is more than 100 µg/mL.
A word on the IC50: it is the concentration that inhibits the measured activity by half. As for `CC1=C[C@H](c2c(O)cc(/C=C/c3ccc(O)cc3O)cc2O)[C@@H](C(=O)c2ccc(O)cc2O)[C@H](c2ccc(O)cc2O)C1`, the selectivity ratio is 55 in [3], 32 in data set [6] and 37 in data set [8]. The figures for the IC50 in the data set with Human alphaherpesvirus 2 [4], in the data set with Human alphaherpesvirus 1 [5] and with Human alphaherpesvirus 1 [7] were 2.5 µg/mL (≈ 4.29 µM), 1.5 µg/mL (≈ 2.57 µM) and 2.2 µg/mL (≈ 3.78 µM), respectively.
As for `Oc1ccc(/C=C/c2cc(O)c3c(c2)O[C@H](c2ccc(O)cc2O)[C@H]3c2cc(O)cc(O)c2)cc1`, the IC50 with Influenza A virus [1] stood at 0.67 µg/mL (≈ 1.42 µM); in [9], 26.3 µg/mL (≈ 55.9 µM); in the data set on Influenza A virus [11], 0.67 µg/mL (≈ 1.42 µM). The selectivity ratio in data set [10] stood at 57.4.
Regarding `O=S(=O)(O)c1cc(N=C=S)ccc1CCc1ccc(N=C=S)cc1S(=O)(=O)O`, 40 µM corresponded to half-maximal inhibition in [12] (IC50).
In the case of `Oc1ccc([C@H]2c3c(O)cc(O)cc3[C@@H]3c4c(cc(O)cc4[C@H]4[C@@H](c5ccc(O)cc5)c5c(O)cc(O)cc5[C@H]5c6c(cc(O)cc6[C@H]24)O[C@@H]5c2ccc(O)cc2)O[C@H]3c2ccc(O)cc2)cc1`, the half-maximal inhibitory concentration (IC50) in the data set on Human alphaherpesvirus 2 [13], in the data set on Human alphaherpesvirus 2 [14] and in the data set with Human alphaherpesvirus 2 [15] was 3.2 µM throughout.
Turning to `Oc1ccc(/C=C\c2cc(O)cc(O)c2)cc1` [CIS-RESVERATROL], the IC50 stood at 37.6 µM with Enterovirus A71 and 12.2 µM in the data set with Coxsackievirus B3.
Regarding `Oc1ccc(/C=C/c2cc(O)cc3c2[C@@H](c2cc(O)cc(O)c2)[C@H](c2ccc(O)cc2)O3)cc1` [EPSILON-VINIFERIN], the concentration giving a half-maximal response (EC50) with Hepatitis C virus [16] was found to be 7 µM; in the data set with Influenza A virus [17] it was 10.1 µM; in the data set with Hepatitis C virus [19], 0.159 µM; in the data set with Hepatitis C virus [20] it was 2.9 µM; in the data set on Hepatitis C virus [22], 0.1 µM. The values for the CC50 in [18], in data set [21] and in data set [23] were more than 10 µM, more than 10 µM and 54.7 µM, respectively.
Consider `Oc1cc(O)cc(/C=C/c2ccc(O)c(O)c2)c1` [PICEATANNOL], for which the selectivity ratio in data set [24] is more than 18.7. For the same compound, the EC50 in data set [25] was determined as 21.4 µM. Also, the CC50 in [26] is more than 400 µM.
As to `Oc1ccc(/C=C/c2cc(O)cc(O)c2)cc1` [RESVERATROL], the EC50 was 28.4 µM in the data set with Influenza A virus [17], more than 75 µM in data set [25] and 4.37 µg/mL (≈ 19.1 µM) in data set [29]. Moreover, the values for the CC50 in data set [27], in data set [26] and in data set [23] were 35.6 µg/mL (≈ 156 µM), more than 300 µM and 52.6 µM, respectively. Moreover, the selectivity ratio in data set [28] amounted to 8.14. Besides, in the data set on Vero C1008, the Activity turned out to be 25%. In addition, the IC50 is more than 22.2 µg/mL in the data set with Influenza A virus [11] and 29.7 µM in the data set with rhinovirus A1B.
